Experimental data as given in patent publication US12714674B2, “JAK inhibitors having a specific particle size distribution” (Elanco US Inc., priority 2020, dated 2026).

How the values were obtained:
[1] = Particle size distribution of micronized (jet-milled) material, laser diffraction; format: physicochemical
Procedure: Micronization was begun with a short “setup” run of approximately 300 grams was performed using a feed rate of 9.6 kg/hr. Venturi/mill pressures were 10 psi.
Particle size distribution method of 2-(3-(4-(7H-pyrrolo[2,3-d]pyrimidin-4-yl)-1H-pyrazol-1-yl)-1-(cyclopropylsulfonyl)azetidin-3-yl)acetonitrile.
Method: 150 to 175 mg 2-(3-(4-(7H-pyrrolo[2,3-d]pyrimidin-4-yl)-1H-pyrazol-1-yl)-1-(cyclopropylsulfonyl)azetidin-3-yl)acetonitrile sample are dispersed with 1 ml Tween20/water mixture (10/90 v/v %) to a paste in a beaker. The entire paste is then transferred to the measuring cuvette (beaker is rinsed out with water for complete sample transfer) and dispersed in 300 ml water. To homogenize the suspension in the measuring cuvette, the pump speed is set to 600 rpm. Before measurement the sample is stirred for 30 seconds. The optical concentration should be in the range of approximately 15 to 20% but the value depends strongly on the particle size distribution in the sample. If the 15 to 20% range is not reached either more sample paste must be added or the sample has to be diluted with water.
Equipment: a Helos laser diffractometer from Sympatec is used. Suspensions are measured using a Quixel cell. Dry measurement is done using the Rodos unit. Evaluation is done using the Paqxos software.

[2] = system: pruritus and skin lesions associated with allergic dermatitis in dogs; experiment: Four-arm, blinded, randomized, placebo-controlled study: control of pruritus and skin lesions associated with allergic dermatitis in dogs; format: in vivo, dog
Procedure: This study evaluated 2-(3-(4-(7H-pyrrolo[2,3-d]pyrimidin-4-yl)-1H-pyrazol-1-yl)-1-(cyclopropylsulfonyl)azetidin-3-yl)acetonitrile for control of pruritus and skin lesions associated with allergic dermatitis in dogs.
Oral tablets were prepared containing Form II 2-(3-(4-(7H-pyrrolo[2,3-d]pyrimidin-4-yl)-1H-pyrazol-1-yl)-1-(cyclopropylsulfonyl)azetidin-3-yl)acetonitrile, as follows. […] The tablet blends were pressed giving tablet cores containing 2.4 mg, 3.6 mg, 5.4 mg, and 16 mg of crystal Form II 2-(3-(4-(7H-pyrrolo[2,3-d]pyrimidin-4-yl)-1H-pyrazol-1-yl)-1-(cyclopropylsulfonyl)azetidin-3-yl)acetonitrile, as well as a placebo core. The tablet cores were coated with a mixture containing water and Opadry 20A150011 Red, thereby giving the final oral tablets for the study.
A four-arm, blinded, randomized, placebo-controlled study was conducted to assess the efficacy of daily administration of 2-(3-(4-(7H-pyrrolo[2,3-d]pyrimidin-4-yl)-1H-pyrazol-1-yl)-1-(cyclopropylsulfonyl)azetidin-3-yl)acetonitrile for control of pruritus and skin lesions associated with allergic dermatitis in dogs. Subjects were randomized to one of the following treatment arms: API-containing Tablets, 0.25-0.40 mg/kg Body Weight; API-containing Tablets, 0.40-0.60 mg/kg Body Weight; API-containing Tablets, 0.60-0.80 mg/kg Body Weight; and Placebo Tablets, 0.0 mg/kg Body Weight.
Dogs enrolled in the study received once daily treatment for approximately 28 days. Baseline data (clinical history, concomitant therapies, body weight, physical examinations and assessments of pruritus and atopic dermatitis) were collected for each dog at enrollment (Day 0). Additional health assessments, physical examinations, body weight measurements, assessments of pruritus and atopic dermatitis, and collection of blood samples for hematology, serum chemistry and pharmacokinetic (PK) analysis occurred consistent with standard testing protocols.
The primary effectiveness variable was treatment success. A treatment success was defined as a 2 unit or more reduction from baseline on the 10-unit owner-assessed pruritus Visual-Analog Scale (VAS) in at least 70% of the first 7 treatment days (i.e., in at least 5 of the first 7 treatment days). Dogs withdrawn from the study within the first 7 days of treatment due to a perceived lack of effectiveness were considered treatment failures.
Random effects were fit for site and site treatment with a variance component covariance structure and a compound symmetry covariance structure was fit for individual dogs.

[3] = Example 50 setup run, feed rate 9.6 kg/hr, venturi/mill pressures 10 psi
[4] = PSD method of Example 51, Helos laser diffractometer, suspension in water/Tween20

dv10 [1, 3] | dv50 [1, 3] | dv90 [1, 3] | dv10 [1, 4] | dv50 [1, 4] | dv90 [1, 4] | Structure (SMILES) | primary endpoint for treatment success ([2]; 0.6-0.8 mg/kg once daily) | Treatment Success LSMean (response rate) ([2]; 0.60-0.80 mg/kg once daily oral tablets containing Form II, success = 2 unit or more reduction on owner pruritus VAS in at least 5 of first 7 treatment days, generalized linear mixed model) | improvement in lesion scores ([2]; 0.6-0.8 mg/kg once daily, day 28) | improvement in pruritus ([2]; 0.6-0.8 mg/kg once daily, from first dose)
4 µm | 20 µm | 53 µm | 4 µm | 20 µm | 51 µm | N#CCC1(n2cc(-c3ncnc4[nH]ccc34)cn2)CN(S(=O)(=O)C2CC2)C1 [sample “I”, 2-(3-(4-(7H-pyrrolo[2,3-d]pyrimidin-4-yl)-1H-pyrazol-1-yl)-1-(cyclopropylsulfonyl)azetidin-3-yl)acetonitrile] |  |  |  | 
 |  |  |  |  |  | N#CCC1(n2cc(-c3ncnc4[nH]ccc34)cn2)CN(S(=O)(=O)C2CC2)C1 [2-(3-(4-(7H-pyrrolo[2,3-d]pyrimidin-4-yl)-1H-pyrazol-1-yl)-1-(cyclopropylsulfonyl)azetidin-3-yl)acetonitrile] | achieved the primary endpoint for treatment success | 0.7188 | significant improvement in lesion scores at day 28 | significant improvements in pruritus from first dose
